A short description of data set [1]: Stability of the crystals removed from the mother liquor. The class given is physicochemical. As to conditions: when removed from the mother liquor.
Data set [2] in a line: Solubility of the Ti(IV)-maltol complexes in water and in CH2Cl2. Format: physicochemical. On the procedure:
Alternatively, more than two (and preferably three) equivalents of maltol could be used to provide an excess and ensure completion of the reaction.
However, at pH of 8.4 the complex becomes soluble in water but promotes tetramerization of the [Ti(maltolato)2(OH)2] species. In fact, this can be monitored by NMR spectroscopy. A pure sample of cis-[Ti(maltolato)2(OH)2] was dissolved in D2O at pH of 8.4. […] These two species belong most likely to cis-[Ti(maltolato)2(OH)2] and [Ti4(maltolato)8(μ-O)4]. After 24 hours the tetrameric species continues increasing while the monomeric species decreases. Upon standing for two weeks, at pH of 8.4, this solution yields orange crystals suitable for X-ray diffraction. Evidently, Ti(maltolato)2(OH)2 further reacts to form a tetranuclear titanium complex, which crystallizes as a hydrate, [Ti4(maltolato)8(μ-O)4].18H2O, Single crystal X-ray structure determination was pursued on this high pH species, which solid state structure is illustrated in FIG. 2. The crystal data and structure refinement details as well as the bonding parameters are summarized below in Table 1 and Table 2, respectively.
Electrochemical behavior of Ti(maltolato)2(OH)2 was investigated using cyclic voltammetry (cv). Ti(maltolato)2(OH)2 in CH2Cl2/[NBu4] […] If this potential is compared with previously reported Ti(IV)-maltol and Ti(IV)-guaiacol complexes, it resembles to reduction potentials of monomeric species such as Ti(maltolato)2(OEt)2 (−1.0 V) and Ti(maltolato)2(Cl)2 (−1.55 V) and not to the tetrameric species [Ti4(guaiacolato)8(μ-O)4] (−1.94 V).

The conditions of data set [3]: physiological pH; cited from earlier work.

For `Cc1occc(=O)c1[O-].Cc1occc(=O)c1[O-].Cc1occc(=O)c1[O-].Cc1occc(=O)c1[O-].Cc1occc(=O)c1[O-].Cc1occc(=O)c1[O-].Cc1occc(=O)c1[O-].Cc1occc(=O)c1[O-].O.O.O.O.O.O.O.O.O.O.O.O.O.O.O.O.O.O.[O-2].[O-2].[O-2].[O-2].[Ti+4].[Ti+4].[Ti+4].[Ti+4]` [[Ti4(maltolato)8(μ-O)4].18H2O], the stability of crystals entry in data set [1] was “unstable and undergoes dehydration”. As for `Cc1occc(=O)c1[O-].Cc1occc(=O)c1[O-].Cc1occc(=O)c1[O-].Cc1occc(=O)c1[O-].Cc1occc(=O)c1[O-].Cc1occc(=O)c1[O-].Cc1occc(=O)c1[O-].Cc1occc(=O)c1[O-].[O-2].[O-2].[O-2].[O-2].[Ti+4].[Ti+4].[Ti+4].[Ti+4]` [[Ti4(maltolato)8(μ-O)4]], the “solubility in CH2Cl2” value in data set [2] (CH2Cl2, cyclic voltammetry attempt) is reported as “lack of solubility”.

As to `CC(=O)[CH-]C(=O)c1ccccc1.CC(=O)[CH-]C(=O)c1ccccc1.CC[O-].CC[O-].[Ti+4]` [budotitane], in data set [3], the hydrolytic stability result is “low hydrolytic stability”.

With “dihydroxobis(maltolato)titanium(IV) [Ti(maltolato)2(OH)2]”, the solubility in water entry is recorded as “slightly water soluble” in data set [2] (low pH (5.4)) and “soluble” in data set [2] (pH of 8.4, promotes tetramerization). With titanocene dichloride, in data set [3], the hydrolytic stability result is “low hydrolytic stability”.
